Measurements published in DBAASP.
Converted amounts (≈) assume the structure as drawn. “And” between values parts separate entries of the source, which are not always exact repeats. Equal entries are not always repeated.

How the values were obtained:
Experiment in all cases: ≥ marks a high value that may be exact or a test limit, other limits are often not marked, values filed in µg/mL are converted to µM
[1] = tested on: Micrococcus luteus DSM 20030
[2] = tested on: Escherichia coli D31
[3] = tested on: Staphylococcus aureus ATCC 25023
[4] = tested on: Listeria monocytogenes LO28
[5] = tested on: Cronobacter sakazakii DPC 6440
[6] = tested on: Staphylococcus epidermidis ATCC 12228
[7] = tested on: Vibrio cholerae non-O1
[8] = tested on: Escherichia coli ATCC 25922
[9] = tested on: Vibrio cholerae non-O139
[10] = tested on: Pseudomonas aeruginosa ATCC 27853
[11] = tested on: Salmonella enterica subsp. enterica serovar Typhi DMST 22842
[12] = tested on: Staphylococcus aureus ATCC 25923
[13] = tested on: Staphylococcus aureus ATCC 6538
[14] = tested on: Enterococcus faecalis FA2-2
[15] = tested on: Streptococcus gordonii
[16] = tested on: Bacillus subtilis ATCC 11774
[17] = tested on: Escherichia coli ATCC 12014
[18] = tested on: Salmonella enterica subsp. enterica serovar Typhimurium ATCC BAA-215
[19] = tested on: Pseudomonas aeruginosa ATCC 10145
[20] = tested on: Porphyromonas gingivalis ATCC 33277
[21] = tested on: Enterococcus faecalis OG1X
[22] = tested on: Staphylococcus aureus ATCC 29213
[23] = tested on: Staphylococcus epidermidis PIA 8400
[24] = tested on: Enterococcus faecalis ATCC 29212
[25] = tested on: Enterobacter cloacae CGMCC 1.58
[26] = tested on: Klebsiella pneumoniae subsp. pneumoniae CGMCC 1.176
[27] = tested on: Escherichia coli AS1.349
[28] = tested on: Staphylococcus aureus AS1.72
[29] = tested on: Pseudomonas aeruginosa CGMCC 1.860
[30] = tested on: Enterococcus faecalis CGMCC 1.595
[31] = tested on: Klebsiella aerogenes CGMCC 1.876
[32] = tested on: Bacillus cereus AS1.126
[33] = tested on: Lactococcus lactis AS1.1690
[34] = tested on: Enterococcus faecium CGMCC 1.2334
[35] = tested on: Staphylococcus aureus
[36] = tested on: Candida albicans
[37] = tested on: Escherichia coli
[38] = tested on: Aspergillus nidulans
[39] = tested on: Streptococcus pneumoniae BCRC 10794
[40] = tested on: Staphylococcus aureus BCRC 10780

SMILES: CC[C@H](C)[C@H](NC(=O)[C@H](Cc1c[nH]c2ccccc12)NC(=O)[C@@H](N)CO)C(=O)N[C@@H](CCCCN)C(=O)N[C@@H](CCCCN)C(=O)N[C@@H](CC(=O)O)C(=O)N[C@@H](CCCCN)C(=O)N[C@@H](Cc1ccccc1)C(=O)N1CCC[C@H]1C(=O)N[C@@H](CO)C(=O)N[C@@H](CO)C(=O)N[C@H](C(=O)NCC(=O)N1CCC[C@H]1C(=O)N[C@@H](Cc1ccc(O)cc1)C(=O)N[C@@H](CC(N)=O)C(=O)N1CCC[C@H]1C(=O)N[C@@H](CC(N)=O)C(=O)N1CCC[C@H]1C(=O)N1CCC[C@H]1C(=O)N1CCC[C@H]1C(=O)N1CCC[C@H]1C(=O)N[C@@H](CCCN=C(N)N)C(=O)N[C@@H](Cc1ccccc1)C(=O)O)[C@@H](C)O [SWIKKDKFPSSTGPYNPNPPPPRF]
- MIC [1]: ≥ 100 µM
- MIC [2]: ≥ 100 µM

SMILES: CC(C)C[C@H](NC(=O)[C@H](CC(C)C)NC(=O)[C@H](CC(C)C)NC(=O)[C@H](CC(C)C)NC(=O)[C@H](CC(C)C)NC(=O)[C@H](CCCCN)NC(=O)[C@H](CC(C)C)NC(=O)[C@@H](N)CCCN=C(N)N)C(=O)N[C@@H](CCCN=C(N)N)C(=O)N[C@@H](Cc1c[nH]c2ccccc12)C(N)=O [RLKLLLLLRW]
- MIC [3]: 3.02 µM (≈ 4 µg/mL)

SMILES: CC[C@H](C)[C@H](NC(=O)[C@@H](NC(=O)[C@H](CCCCN)NC(=O)[C@@H](NC(=O)[C@H](CCCCN)NC(=O)[C@@H]1CCCN1C(=O)[C@H](CCC(N)=O)NC(=O)[C@H](C)NC(=O)[C@@H](N)Cc1c[nH]c2ccccc12)[C@@H](C)O)C(C)C)C(=O)N1CCC[C@H]1C(=O)N[C@@H](Cc1ccc(O)cc1)C(=O)N[C@H](C(=O)N[C@@H](CCCN=C(N)N)C(=O)N[C@@H](Cc1ccc(O)cc1)C(=O)N[C@@H](CC(C)C)C(=O)O)C(C)C [WAQPKTKVIPYVRYL]
- MIC [4]: ≥ 39.1 µM
- MIC [5]: ≥ 39.1 µM

SMILES: NC(=O)[C@H](Cc1c[nH]c2ccccc12)NC(=O)[C@H](Cc1c[nH]c2ccccc12)NC(=O)[C@H](CCCN=C(N)N)NC(=O)[C@H](CCCN=C(N)N)NC(=O)[C@H](Cc1c[nH]c2ccccc12)NC(=O)[C@H](Cc1c[nH]c2ccccc12)NC(=O)[C@H](CCCN=C(N)N)NC(=O)[C@H](Cc1c[nH]c2ccccc12)NC(=O)[C@H](Cc1c[nH]c2ccccc12)NC(=O)[C@@H](N)CCCN=C(N)N [RWWRWWRRWW]
- MIC [6]: > 51.7 µM
- MIC [7]: 13.1 µM (≈ 23 µg/mL)
- MIC [8]: > 51.7 µM
- MIC [9]: 13.1 µM (≈ 23 µg/mL)
- MIC [10]: 26.1 µM (≈ 46 µg/mL)
- MIC [11]: ≥ 51.7 µM
- MIC [12]: > 51.7 µM

SMILES: CC[C@H](C)[C@H](NC(=O)[C@H](CCCCN)NC(=O)[C@H](CCC(=O)O)NC(=O)[C@H](CCCCN)NC(=O)[C@H](CO)NC(=O)[C@H](CCCCN)NC(=O)[C@@H](N)CCCN=C(N)N)C(=O)NCC(=O)N[C@@H](CCCCN)C(=O)N[C@@H](CCC(=O)O)C(=O)N[C@@H](Cc1ccccc1)C(=O)N[C@@H](CCCCN)C(=O)N[C@@H](CCCN=C(N)N)C(=O)N[C@H](C(=O)N[C@H](C(=O)N[C@@H](CCC(N)=O)C(=O)N[C@@H](CCCN=C(N)N)C(=O)N[C@H](C(=O)N[C@@H](CCCCN)C(=O)N[C@@H](CC(=O)O)C(=O)N[C@@H](Cc1ccccc1)C(=O)O)[C@@H](C)CC)C(C)C)[C@@H](C)CC [RKSKEKIGKEFKRIVQRIKDF]
- MIC [13]: 19 µM (≈ 50 µg/mL)
- MIC [14]: 4.75 µM (≈ 12.5 µg/mL)
- MIC [15]: 2.37 µM (≈ 6.25 µg/mL)
- MIC [16]: 0.038 µM (≈ 0.1 µg/mL)
- MIC [17]: 0.152 µM (≈ 0.4 µg/mL)
- MIC [18]: 19 µM (≈ 50 µg/mL)
- MIC [19]: ≥ 38 µM
- MIC [20]: 4.75 µM (≈ 12.5 µg/mL)
- MIC [21]: 19 µM (≈ 50 µg/mL)

SMILES: CC[C@H](C)[C@H](NC(=O)[C@H](CCCCN)NC(=O)[C@@H](NC(=O)[C@H](CCCN=C(N)N)NC(=O)[C@H](CCCN=C(N)N)NC(=O)[C@@H](N)CCCN=C(N)N)[C@@H](C)CC)C(=O)N[C@@H](CCCN=C(N)N)C(=O)N[C@@H](Cc1c[nH]c2ccccc12)C(=O)N[C@@H](Cc1ccc(O)cc1)C(N)=O [RRRIKIRWY]
- MIC [22]: 23 µM (≈ 31 µg/mL)
- MIC [8]: 23 µM (≈ 31 µg/mL)
- MIC [10]: 23 µM and 46.8 µM
- MIC [23]: 23 µM and 11.9 µM
- MIC [24]: 186 µM (≈ 251 µg/mL)

SMILES: NC(N)=NCCC[C@H](NC(=O)[C@H](Cc1cnc[nH]1)NC(=O)[C@H](Cc1c[nH]c2ccccc12)NC(=O)[C@H](Cc1ccccc1)NC(=O)[C@H](CCCN=C(N)N)NC(=O)[C@H](CCCN=C(N)N)NC(=O)[C@@H](N)Cc1c[nH]c2ccccc12)C(=O)O [WRRFWHR]
- MIC [25]: ≥ 100 µM
- MIC [26]: ≥ 100 µM
- MIC [27]: 25 µM (≈ 28.6 µg/mL)
- MIC [28]: 25 µM (≈ 28.6 µg/mL)
- MIC [29]: 25 µM (≈ 28.6 µg/mL)
- MIC [30]: ≥ 50 µM
- MIC [31]: ≥ 100 µM
- MIC [32]: 25 µM (≈ 28.6 µg/mL)
- MIC [33]: ≥ 50 µM
- MIC [34]: 25 µM (≈ 28.6 µg/mL)

SMILES: CC[C@H](C)[C@H](NC(=O)[C@H](CO)NC(=O)[C@@H]1CCCN1C(=O)[C@H](CCCN=C(N)N)NC(=O)[C@H](Cc1c[nH]c2ccccc12)NC(=O)[C@H](Cc1c[nH]c2ccccc12)NC(=O)[C@H](Cc1ccc(O)cc1)NC(=O)[C@H](CCC(N)=O)NC(=O)[C@H](CCCCN)NC(=O)[C@H](CC(C)C)NC(=O)[C@@H]1CCCN1C(=O)[C@@H](N)Cc1cnc[nH]1)C(=O)O [HPLKQYWWRPSI]
- MIC [35]: > 125 µM
- MIC [36]: 11 µM (≈ 17.7 µg/mL)
- MIC [37]: > 125 µM
- MIC [38]: 21.9 µM (≈ 35.4 µg/mL)

SMILES: CC[C@H](C)[C@H](NC(=O)[C@H](CCSC)NC(=O)[C@H](CCCCN)NC(=O)CNC(=O)[C@H](C)NC(=O)[C@H](Cc1cnc[nH]1)NC(=O)[C@H](Cc1ccccc1)NC(=O)[C@H](CC(C)C)NC(C)=O)C(=O)N[C@@H](Cc1cnc[nH]1)C(N)=O [LFHAGKMIH]
- MIC [39]: ≥ 94.9 µM
- MIC [40]: ≥ 94.9 µM
